Data as given in patent US20260309621A1, “HIGH THROUGHPUT OPTICAL ASSAY FOR SCREENING HEMOGLOBIN OXYGEN AFFINITY MODIFYING DRUG” (CASE WESTERN RESERVE UNIVERSITY, priority 2023, published 2026).

What was measured:
[1] = test system: HbAA and HbSS whole blood; experiment: pO2 reduction in whole blood by Na2S2O5 (blood gas analyzer); design: species or system human
Method: All samples were initially exposed to ambient air for 600 seconds. The oxygen partial pressure (pO2), 21% of atmospheric pressure (773 mmHg), was then normalized to 162 mmHg PO2 during oxygenation (FIG. 7A). Sodium metabisulphite (Na2S2O5) was used to deoxygenate the samples chemically (FIG. 7B). Predetermined amounts of sodium metabisulphite were mixed with 2 ml of the prepared samples for 90 seconds using a vortexer (Scientific Industries, Bohemia, NY). The concentrations of Na2S2O5 used with purified hemoglobin were 0.039 M, 0.046 M, 0.053 M, 0.059 M, 0.066 M, 0.079 M, and 0.082 M, which corresponded to a gradual reduction in the oxygen partial pressure in the samples. For whole blood and RBC analyses, we used 0.053 M of Na2S2O (17-fold more molecules than Hb molecules in solution) to achieve partial deoxygenation (Table 1). A blood gas analyzer (Nova Starter Pro, Nova BioMed, Boston, Massachusetts) was used to confirm the deoxygenation levels at those Na2S2O5 concentrations.
We used sodium metabisulphite (Na2S2O5) to deoxygenate purified hemoglobin, intact RBCs, or whole blood (FIGS. 7A & B). […] At elevated concentrations of Na2S2O5, corresponding to high levels of deoxygenation or pO2 close to 30 mmHg, the curve plateaus (FIG. 8).

HbSS patient whole blood = experiment: Peak wavelength shift of whole blood from SCD patients stratified by treatment; design: species or system human
Method: Blood samples were collected from healthy donors and individuals with SCD as part of standard clinical care. We received ethical approval from the University Hospitals of Cleveland Medical Center's Institutional Review Board (IRB) and Joint Clinical Research Ethics Committee in Kampala, Uganda, for the Naïve SCD group. All participants in the study provided written informed consent. When collected, blood samples were de-identified, kept at 4 degrees Celsius, and processed within 6 hours of receipt. […] Hemoglobin profiles of samples were verified using the reference standard high performance liquid chromatography (HPLC, VARIANT™ II, Bio-Rad Laboratories, Inc., Hercules, California). […] Intracellular hemoglobin concentration for all blood samples was measured under normoxia with complete blood count (CBC, Hemavet 950FS, Hematology System, Draw Scientific Inc.; Miami, Florida).
During testing with either oxygenation or deoxygenation, samples were analyzed in three microplate wells using a spectroscopy microplate reader Spectramax M2e (Molecular Devices, San Jose, CA), over a spectral range of 350-750 nm, with a wavelength resolution of 2 nm and at a customized microplate well reading setting at room temperature. […] (3) For each sample and at concentration of 0.053 M Na2S2O5, the bathochromic wavelength shift and intensity were assessed for further analysis (FIG. 7D). […]

hemoglobin (HbAA, HbSS) = experiment: Hemoglobin-oxygen dissociation assay (Soret band bathochromic shift with partial chemical deoxygenation by Na2S2O5); format: biochemical, human; settings: for Peak wavelength: pH 6.9, pO2 = 75 mmHg, mean ± SEM; for peak wavelength, repeatability: ~20 mmHg pO2, mean ± SEM
Text: Herein, we take advantage of the unique optical shift of Hb's Soret band and combine it with partial chemical deoxygenation to optically measure Hb-O2 dissociation under physiologically acidic conditions at pH 6.9.
Blood samples were collected from healthy donors and individuals with SCD as part of standard clinical care. We received ethical approval from the University Hospitals of Cleveland Medical Center's Institutional Review Board (IRB) and Joint Clinical Research Ethics Committee in Kampala, Uganda, for the Naïve SCD group. All participants in the study provided written informed consent. When collected, blood samples were de-identified, kept at 4 degrees Celsius, and processed within 6 hours of receipt. […] Hemoglobin profiles of samples were verified using the reference standard high performance liquid chromatography (HPLC, VARIANT™ II, Bio-Rad Laboratories, Inc., Hercules, California). The results were presented as a percentage of HbS, A2, and F; the remainder was considered HbA since the values were normalized to 100%. Intracellular hemoglobin concentration for all blood samples was measured under normoxia with complete blood count (CBC, Hemavet 950FS, Hematology System, Draw Scientific Inc.; Miami, Florida).
Three independent sample preparations were performed to test different hypotheses. (1) Whole blood, (2) isolated intact red blood cells (RBC), and (3) purified hemoglobin (lysed samples).
For whole blood preparation, 75 μl of whole blood was mixed with pH 6.9 buffers at a ratio of 1:300 and incubated for 10 minutes at room temperature before deoxygenation.
For intact RBC sample preparation, whole blood was centrifuged at 500 g for 10 minutes in a microcentrifuge (model 21r; Thermo Scientific, Waltham, MA). The plasma and buffy coat were removed via aspiration. The RBCs were washed thrice with phosphate-buffered saline (PBS) at pH 7.4 (Gibco, Thermo Scientific, Waltham, MA). Next, 45 μL of the washed RBC suspension was diluted with a pH 6.9 buffer solution until the baseline hematocrit of 0.2% was achieved. Before deoxygenation, RBCs were incubated for 10 minutes in a pH 6.9 buffer solution at room temperature.
For purified hemoglobin preparation; lysed samples were prepared. Hemolysis was carried out by sonication for 30 seconds (Hemex Health; Portland, OR). Following hemolysis, the lysed cell suspension was added to various pH buffer solutions and centrifuged at 2000 g for 1 hour. Three hundred μl of the cell lysate was removed, and the supernatant was dis-carded. Cell lysates were diluted in 700 μl of the specific pH buffer solution and centrifuged at 2000 g for 1 hour. The 1 ml of pH buffer solution and cell lysate were filtered through a 0.02 μm Millipore membrane. The hemoglobin concentration in the lysed sample was determined using the hemoglobin [COMPOUND LEFT OUT] (HiCN) method and measured with a cuvette spectrophotometer at 540 nm. Each purified lysed sample was diluted with different pH solutions (pH 6.9, 7.2, 7.4, 8.0, and 10.0) to achieve a hemoglobin concentration of 2.8 mg dl^−1, determined as the baseline for lysed sample analysis.

purified hemoglobin = experiment: Circular dichroism spectra of purified hemoglobin at pH 6.9; format: physicochemical, human; settings: purified Hb, pH 6.9, 75 mmHg, deoxy
Text: The circular dichroism (CD) spectra, like the absorption spectra in the Soret and visible range, reveal the molecular structure of the hemoglobin globin and heme groups. […] CD spectra were collected between 190 and 650 nm wavelength on a Jasco J-1500 Spectropolarimeter with a 1 mm quartz cuvette and a scan rate of 4 seconds. The recorded spectra were background subtracted, accounting for a pH 6.9 buffer. The data was baselined and smoothed in the Spectra Manager software (Release 2018; Version 2.15.01).

HbSS = molecular target: T1, HbSS (Homo sapiens, UniProt P68871+P69905, E7V); experiment: 96-well high throughput optical absorption assay: Soret band peak wavelength shift of deoxygenated SCD samples treated with oxygen modifying molecules; format: biochemical
T1 construct: whole blood, washed red cells or purified hemoglobin
Text: FIGS. 3(A-C) illustrate varying concentration of voxelotor tested using 96 well plates optical assay. (A) Representative 96 well plate, showing the arrangement of a single sample analyzed. […] (B) Insert from the 12 columns of the 96 well plate, showing the Soret band peak wavelength shift in the wavelength range of 380-450 nm.
FIGS. 4(A-B) illustrate increasing the concentration of voxelotor induces a decrease in the peak wavelength of SCD samples (A) Insert from the 12 columns of the 96 well plate, showing the Soret band peak wavelength shift in the wavelength range of 380-450 nm.
FIGS. 5(A-B) illustrate varying concentration of PKR activator tested using 96 well plates optical assay. (A) Insert from the 12 columns of the 96 well plate, showing the Soret band peak wavelength shift in the wavelength range of 380-450 nm.
FIGS. 6(A-B) illustrate varying concentrations of aptamer induce peak wavelength shift. (A) Soret band peak wavelength shifts for oxygenated blood with aptamer deoxygenated blood with aptamer, untreated blood, and voxelotor treatment were compared in the wavelength range of 350-450. Increasing the concentration of aptamer from 0.2 dosages (B) Increasing the concentration of aptamer from 0.2 dosages to 0.25 induces a reduction in peak wavelength from 416 nm to 414 nm.
This example relates to a 96-well high throughput assay optical absorption spectroscopic assay that can be used to assess the rate of oxygen release from hemoglobin.
Whole blood, purified hemoglobin, or washed red blood cells (RBCs) are mixed with a buffer solution at 6.8 or 8. Additional hemoglobin or RBCs to an acidic buffer changes the molecular conformational structure of hemoglobin. Determined volume of the analyte (including but not limited to whole blood, purified hemoglobin, or red blood cells (RBCs)) are mixed with buffer are added to each of the 12/96/384 well plates. The analytes are then chemically deoxygenated with a determined concentration of sodium metabisulphite an approach to deplete oxygen from hemoglobin molecules. The solution is analyzed using a spectroscopic microplate reader. […]

O=S([O-])S(=O)(=O)[O-].[Na+].[Na+] [Na2S2O5, sodium metabisulfite]
pO2 in whole blood with increased Na2S2O5 concentration ([1]; 0-0.08 M Na2S2O5, 4 minutes, pH 6.9, 7.2, 7.4, 8.0, HbAA and HbSS, n=5, FIG. 8): 20-40 mmHg | deoxygenation of hemoglobin ([1]; 0.053 M Na2S2O5): partial deoxygenation of hemoglobin | pO2 of deoxygenated samples ([1]; 0.053 M Na2S2O5): 75 mmHg | min. pO2 in HbSS whole blood ([1]; 0.053 M Na2S2O5, FIG. 8B): around 10 mmHg

NC(=O)NO [hydroxyurea]
peak wavelength shift differences, oxygenated samples (HbSS patient whole blood; Hu HbSS, oxygenated, FIG. 11C): No significant differences | bathochromic shift differences between HbAA, HbAS and HbSS stratified by treatment (HbSS patient whole blood; hydroxyurea (Hu HbSS=15), deoxygenated 75 mmHg, pH 6.9, FIG. 11C): significant differences

HbAA: healthy hemoglobin
peak wavelength, fully oxygenated (hemoglobin (HbAA, HbSS); 162 mmHg pO2, all pH values): 414 nm | Peak wavelength (hemoglobin (HbAA, HbSS); RBCs): 418.0 ± 0.56 (n = 15) | peak wavelength, repeatability (hemoglobin (HbAA, HbSS); User1, whole blood): 414.9±0.11 | peak wavelength, repeatability (hemoglobin (HbAA, HbSS); User2, whole blood): 415.1±0.05 | Peak wavelength (hemoglobin (HbAA, HbSS); purified hemoglobin): 417.2 ± 0.78 (n = 23) | area under the peak (hemoglobin (HbAA, HbSS); whole blood, FIG. 10I, pH 6.9, 75 mmHg pO2): 37.2±0.8 | FWHM (hemoglobin (HbAA, HbSS); whole blood, FIG. 10J, pH 6.9, 75 mmHg pO2): 24.3±0.82 | Peak wavelength (hemoglobin (HbAA, HbSS); whole blood): 415.3 ± 0.23 (n = 15) | CD Soret peak, partially deoxygenated (purified hemoglobin): 425 nm

CC(C)n1nccc1-c1ncccc1COc1cccc(O)c1C=O [voxelotor]
difference in peak wavelength shift between deoxy HbSS and deoxy HbSS+Vox (HbSS; 63, 118, 211 and 421 μM Vox, Mann-Whitney, FIG. 4): Significate differences | peak wavelength shift of treated SCD samples compared to untreated SCD samples (HbSS; voxelotor, 3 hours incubation, varying concentrations): reduced peak wavelength shift | effect of increasing concentration on oxygen affinity of HbSS (HbSS; voxelotor, reduction in peak wavelength shift to that of HbAA, FIG. 4): increases the oxygen affinity of HbSS

purified Hb: purified hemoglobin (lysed samples)
peak wavelength of purified Hb with increasing Hb concentration (hemoglobin (HbAA, HbSS); purified Hb 0.3-11.2 mg/dl, FIG. 13): 420±0.2
